Values quoted from earlier work as cited in patent US11504387B2, “Bioconversion of oleuropein” (SOCIETE DES PRODUITS NESTLE S.A., priority 2017, dated 2022).

Tests used:
[1] = compared to caffeic acid, oleuropein and hydroxytyrosol
[2] = in vivo
[3] = upper gastrointestinal tract and small intestine
[4] = compared with hydroxytyrosol

CC=C1C(O)OC=C(C(=O)OC)C1CC(=O)OCCc1ccc(O)c(O)c1 (stereo not shown) [oleuropein aglycone, 3,4-dihydroxyphenylethanol-elenolic acid]
antioxidant activity [1]: comparable to that of caffeic acid, oleuropein and hydroxytyrosol | clearance from the plasma [2]: slower clearance from the plasma compared with hydroxytyrosol and oleuropein

C/C=C1/[C@H](O[C@@H]2O[C@H](CO)[C@@H](O)[C@H](O)[C@H]2O)OC=C(C(=O)OC)[C@H]1CC(=O)OCCc1ccc(O)c(O)c1 [oleuropein]
resistance to degradation [3]: resists degradation in the upper gastrointestinal tract and the small intestine

hydroxytyrosol acetate
solubility in the lipophilic phases [4]: more soluble in the lipophilic phases than hydroxytyrosol
